Results on 16 compounds are retold here after US20260337153A1, “IONIZABLE AMINE LIPIDS” (Intellia Therapeutics, Inc., priority 2023, published 2026).

Values joined by “and” are separate entries in the source; they are usually repeats but may differ in a detail not shown here. Identical values can stand only once. Like-named read-outs stand apart in the source and are kept apart here.

Common to all, as to format: physicochemical
A short description of series [1]: pKa of unformulated amine lipid by TNS fluorescence. Particulars: sodium phosphate buffer, unformulated amine lipid, TNS, read-out: Lipid pKa. In a few lines: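 Unformulated amine lipid was diluted from ethanol stock to approx. 100 μM in 0.1 M sodium phosphate buffers spanning pH 4.5–9.0 with TNS. Fluorescence read at ex 321/em 448 nm; normalized data fitted sigmoidally to give pKa.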

Series [2] can be described thus: LNP encapsulation efficiency of RNA (Ribogreen fluorescence assay). Particulars: sgRNA:mRNA 1:2. An outline of the steps: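 RiboGreen fluorescence (ex 488/em 525 nm) measured total RNA in 1×TE with 0.2% Triton X-100 and free RNA in 1×TE alone, against standard curves of the starting RNA; encapsulation = (total − free)/total. Total RNA alternatively quantified after Triton disruption by RP-IP HPLC, UV 260 nm.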

Series [3] can be described thus: LNP average particle size and polydispersity by dynamic light scattering. The conditions noted are these: sgRNA:mRNA 1:2; for Number mean (average particle size) / PDI (polydispersity index) / Z-avg (average particle size): LNP with 50% ionizable lipid, 3% C13 Ether (LNP #1, Compound 53: 3% PEG2K-DMG instead). In a few lines: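 Z-average (intensity-based) and number-mean diameters plus PDI measured by DLS on LNP samples diluted in PBS. LNPs carried sgRNA and Cas9 mRNA at 1:2 w/w, with lipids at 50% ionizable lipid, 38% cholesterol, 9% DSPC and 3% PEG lipid (PEG2K-DMG, C13 Ether or C14 Ether).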

The mark [4] stands for this setting: Table 3, Experiment 14, LNP with 3% C13 Ether.
[5] abbreviates: Table 3, Experiments 1-13, LNP 50% ionizable lipid, 38% cholesterol, 9% DSPC, 3% PEG2K-DMG.
Where [6] appears, read: LNP with 50% ionizable lipid, 38% cholesterol, 9% DSPC, 3% C13 Ether (LNP #1, Compound 53: 3% PEG2K-DMG instead).
The mark [7] stands for this setting: additional ionizable lipids (53-61).

One may read the pKa as the pH at which an ionisable group is half protonated. For the compound `CCCCCCCCC(CCCCCCCC)OC(=O)CCCC(=O)OCC(COC(=O)CCCC(=O)OC(CCCCCCCC)CCCCCCCC)OC(=O)NCCN(CC)CC` [Compound 35, O,O′-(2-(((2-(diethylamino)ethyl)carbamoyl)oxy)propane-1,3-diyl) di(heptadecan-9-yl) diglutarate], in series [1] (Table 2), the pKa came to 6.83. For the same compound, in series [2] (setting [4]), the “% E (encapsulation efficiency)” value was 99%. Further, in series [3] (setting [4]), the Number mean came to 67 nm, the PDI was determined as 0.019 and the Z-avg is 76 nm.

For `CCCCCCC(CCCCCC)OC(=O)CCCC(=O)OCC(COC(=O)CCCC(=O)OC(CCCCCC)CCCCCC)COC(=O)NCCN(CC)CC` [Compound 37, O,O′-(2-((((2-(diethylamino)ethyl)carbamoyl)oxy)methyl)propane-1,3-diyl) di(tridecan-7-yl) diglutarate], the pKa in series [1] (Table 2) worked out at 6.66. The “% E (encapsulation efficiency)” value in series [2] (setting [5]) is listed as 99%. Besides, in series [3] (setting [5]), the Number mean is 71 nm, the PDI was 0.014 and the Z-avg was determined as 78 nm.

Take `CCCCCCCCC(CCCCCCCC)C(=O)OCC(COC(=O)NCCN(CC)CC)COC(=O)C(CCCCCCCC)CCCCCCCC` [Compound 40, 2-((((2-(diethylamino)ethyl)carbamoyl)oxy)methyl)propane-1,3-diyl bis(2-octyldecanoate)]: in series [1] (Table 2), the pKa came out at 5.97. For the same compound, in series [2] (setting [4]), the “% E (encapsulation efficiency)” value amounted to 92%. In series [3] (setting [4]), the Number mean was 48 nm, the PDI was found to be 0.062 and the Z-avg came to 57 nm.

Turning to `CCCCC/C=C\C/C=C\CCCCCCCC(=O)OCC(COC(=O)CCCC(=O)OC(CCCCCCCC)CCCCCCCC)COC(=O)N(C)CCN(CC)CC` (stereo not shown) [Compound 49, 3-(((2-(diethylamino)ethyl)(methyl)carbamoyl)oxy)-2-((((9Z,12Z)-octadeca-9,12-dienoyl)oxy)methyl)propyl heptadecan-9-yl Glutarate], in series [1] (Table 2), the pKa came out at 6.38. For the same compound, the “% E (encapsulation efficiency)” value in series [2] (setting [5]) came to 97%. For the same compound, in series [3] (setting [5]), the Number mean stood at 87 nm, the PDI is 0.01 and the Z-avg turned out to be 91 nm.

For `CCCCC/C=C\C/C=C\CCCCCCCC(=O)OCC(COC(=O)CCCC(=O)OC(CCCCCCCC)CCCCCCCC)COC(=O)NCCN1CCCCCC1` (stereo not shown) [Compound 50, 3-(((2-(azepan-1-yl)ethyl)carbamoyl)oxy)-2-((((9Z,12Z)-octadeca-9,12-dienoyl)oxy)methyl)propyl heptadecan-9-yl Glutarate], in series [1] (Table 2), the pKa came to 6.6. Also, in series [2] (setting [5]), the “% E (encapsulation efficiency)” value was determined as 98%. In series [3] (setting [5]), the Number mean came out at 66 nm, the PDI was 0.02 and the Z-avg was 74 nm.

Regarding `CCCCCCCCC(CCCCCCCC)OC(=O)CCCCCC(=O)OCC(CCCCCCCCC(=O)OCC(CCCC)CCCCCC)COC(=O)NCCN(CC)CC` (stereo not shown) [Compound 51, 1-(11-((2-butyloctyl)oxy)-2-((((2-(diethylamino)ethyl)carbamoyl)oxy)methyl)-11-oxoundecyl) 7-(heptadecan-9-yl) heptanedioate], the pKa in series [1] (Table 2) turned out to be 6.39. Moreover, the “% E (encapsulation efficiency)” value in series [2] (setting [5]) is on record as 99%. In series [3] (setting [5]), the Number mean is on record as 81 nm, the PDI amounted to 0.03 and the Z-avg is on record as 90 nm.

As to `CCCCCCCCC(CCCCCCCC)OC(=O)CCCCCCC(=O)OCC(COC(=O)CCCCCCC(=O)OC(CCCCCCCC)CCCCCCCC)COC(=O)NCCN(CC)CC` [Compound 52, O′1,O1-(2-((((2-(diethylamino)ethyl)carbamoyl)oxy)methyl)propane-1,3-diyl) 8,8′-di(heptadecan-9-yl) di(octanedioate)], in series [1] (Table 2), the pKa turned out to be 6.47. In addition, in series [2] (setting [6]), the “% E (encapsulation efficiency)” value was found to be 97%. Further, the “% E (encapsulation efficiency)” value in series [2] (setting [5]) is 97%. Besides, in series [2] (Table 7, LNP with 3% C13 Ether), the “% E (encapsulation efficiency)” value was determined as 97%. In series [3] (38% cholesterol, 9% DSPC), the “Number mean (average particle size)” value is reported as 74 nm, the “PDI (polydispersity index)” value was found to be 0.02 and the “Z-avg (average particle size)” value is 88 nm. Also, in series [3] (setting [5]), the Number mean came to 79 nm, the PDI was 0.03 and the Z-avg is 87 nm. In series [3] (Table 7, LNP with 3% C13 Ether), the Number mean came to 79 nm, the PDI is on record as 0.01 and the Z-avg was 85 nm.

Consider `CCCCC/C=C\C/C=C\CCCCCCCC(=O)OCC(COC(=O)CCC(OCCCCCCCC)OCCCCCCCC)COC(=O)OCCCN(CC)CC` (stereo not shown) [Compound 53], for which the pKa in series [1] (setting [7]) worked out at 6.2. Besides, the “% E (encapsulation efficiency)” value was 98% in series [2] (setting [6]); 98% and 99% and 94% and 97% in series [2] (setting [5]); 97% in series [2] (Table 5, PEG lipid C13 Ether); 99% in series [2] (Table 5, PEG lipid C14 Ether); 97% in series [2] (Table 5, PEG lipid PEG2K-DMG). Also, the “Number mean (average particle size)” value in series [3] (38% cholesterol, 9% DSPC) turned out to be 71 nm. Further, the “PDI (polydispersity index)” value in series [3] (38% cholesterol, 9% DSPC) is listed as 0.04. The “Z-avg (average particle size)” value in series [3] (38% cholesterol, 9% DSPC) was 87 nm. For the same compound, the Z-avg in series [3] (setting [5]) was 94 nm and 89 nm and 96 nm and 92 nm and 90 nm and 91 nm and 95 nm; in series [3] (Table 5, PEG lipid C13 Ether) it was 87 nm; in series [3] (Table 5, PEG lipid C14 Ether), 96 nm; in series [3] (Table 5, PEG lipid PEG2K-DMG), 87 nm. The Number mean in series [3] (Table 5, PEG lipid C13 Ether) turned out to be 80 nm; in series [3] (Table 5, PEG lipid C14 Ether), 90 nm; in series [3] (Table 5, PEG lipid PEG2K-DMG) it was 82 nm. Besides, the PDI turned out to be 0.02 in series [3] (Table 5, PEG lipid C13 Ether); 0.01 in series [3] (Table 5, PEG lipid C14 Ether); 0.01 in series [3] (Table 5, PEG lipid PEG2K-DMG).

Turning to `CCCCC/C=C\C/C=C\CCCCCCCC(=O)OCC(COC(=O)CCC(OCCCCCCCC)OCCCCCCCC)COC(=O)NCCN(CC)CC` (stereo not shown) [Compound 54], in series [1] (setting [7]), the pKa was 6.5. Besides, the “% E (encapsulation efficiency)” value in series [2] (setting [5]) stood at 88%. Further, in series [3] (setting [5]), the Number mean was found to be 80 nm, the PDI stood at 0.003 and the Z-avg is listed as 98 nm.

Turning to `CCCCCCCCCOC(=O)CCCCCCCN(CCO)CCCCCCCC(=O)OC(CCCCCCCC)CCCCCCCC` [Compound 55], in series [1] (setting [7]), the pKa came out at 6.6. Also, the “% E (encapsulation efficiency)” value in series [2] (setting [5]) came to 84%. In addition, in series [3] (setting [5]), the Number mean came to 65 nm, the PDI is 0.05 and the Z-avg was 77 nm.

Consider `CCCCC/C=C\C/C=C\CCCCCCCC(=O)OCC(COC(=O)CCCC(=O)OC(CCCCCCCC)CCCCCCCC)COC(=O)OCCCN(CC)CC` (stereo not shown) [Compound 56], for which the pKa in series [1] (setting [7]) was determined as 6.1. For the same compound, the “% E (encapsulation efficiency)” value in series [2] (setting [5]) was 95% and 97%. Also, in series [3] (setting [5]), the Number mean was 74 nm and 80 nm; the PDI was 0.04 and 0.03; the Z-avg was 90 nm and 86 nm.

Take `CCCCC/C=C\C/C=C\CCCCCCCC(=O)OCC(COC(=O)CCCCCC(=O)OC(CCCCCCCC)CCCCCCCC)COC(=O)OCCCN(CC)CC` (stereo not shown) [Compound 57]: the pKa in series [1] (setting [7]) stood at 6.1. Further, the “% E (encapsulation efficiency)” value in series [2] (setting [5]) was 96%. In series [3] (setting [5]), the Number mean is 75 nm and 80 nm; the Z-avg is 91 nm and 88 nm.

For the compound `CCCCC/C=C\C/C=C\CCCCCCCC(=O)OCC(COC(=O)CCCC(=O)OC(CCCCCCCC)CCCCCCCC)COC(=O)NCCN(CC)CC` (stereo not shown) [Compound 58], the pKa in series [1] (setting [7]) is 6.8. Moreover, the “% E (encapsulation efficiency)” value in series [2] (setting [5]) is 87% and 90%. In series [3] (setting [5]), the Number mean was 69 nm and 84 nm and 77 nm; the Z-avg is 91 nm and 92 nm and 94 nm.

Regarding `CCCCC/C=C\C/C=C\CCCCCCCC(=O)OCC(COC(=O)CCCCCC(=O)OC(CCCCCCCC)CCCCCCCC)COC(=O)NCCN(CC)CC` (stereo not shown) [Compound 59], in series [1] (setting [7]), the pKa stood at 6.8. Further, in series [2] (setting [5]), the “% E (encapsulation efficiency)” value was 83% and 82%. In addition, in series [3] (setting [5]), the Number mean was 83 nm and 78 nm; the PDI was 0.01 and 0.02; the Z-avg is 100 nm and 95 nm.

`CCCCCCCCC(CCCCCCCC)OC(=O)CCCCCCC(=O)OCC(COC(=O)CCCCCCC(=O)OC(CCCCCCCC)CCCCCCCC)COC(=O)OCCCN(CC)CC` [Compound 60]: the pKa in series [1] (setting [7]) came to 6.1. Besides, the “% E (encapsulation efficiency)” value in series [2] (setting [5]) was 97%; in series [2] (Table 5, PEG lipid C13 Ether), 95%; in series [2] (Table 5, PEG lipid C14 Ether), 96%; in series [2] (Table 5, PEG lipid PEG2K-DMG), 96%. Besides, the Number mean is listed as 78 nm in series [3] (setting [5]); 80 nm in series [3] (Table 5, PEG lipid C13 Ether); 83 nm in series [3] (Table 5, PEG lipid C14 Ether); 77 nm in series [3] (Table 5, PEG lipid PEG2K-DMG). Further, the PDI in series [3] (setting [5]) is given as 0.02; in series [3] (Table 5, PEG lipid C13 Ether), 0.03; in series [3] (Table 5, PEG lipid C14 Ether), 0.03; in series [3] (Table 5, PEG lipid PEG2K-DMG), 0.03. In addition, the Z-avg in series [3] (setting [5]) came out at 87 nm; in series [3] (Table 5, PEG lipid C13 Ether) it was 87 nm; in series [3] (Table 5, PEG lipid C14 Ether) it was 95 nm; in series [3] (Table 5, PEG lipid PEG2K-DMG), 89 nm.

Turning to `CCCCCCCCC(CCCCCCCC)OC(=O)CCCCCCC(=O)OCC(COC(=O)CCCCCCC(=O)OC(CCCCCCCC)CCCCCCCC)COC(=O)NCCCN(CC)CC` [Compound 61], the pKa in series [1] (setting [7]) turned out to be 7.4. Moreover, the “% E (encapsulation efficiency)” value in series [2] (setting [5]) worked out at 100%. In series [3] (setting [5]), the Number mean came to 39 nm, the PDI is reported as 0.16 and the Z-avg stood at 74 nm.
